≈ marks a conversion by molar mass, not a printed value. Calls of active or inactive are those of the source. No cut-off for these calls is given here.
Columns and labels:
[1] = tested on: Acinetobacter baumannii; assay: Antibacterial activity against Acinetobacter baumannii 17-8 assessed as inhibition of bacterial growth measured after 18 to 20 hrs by broth microdilution method; format: functional; settings: time 18-20 hrs
[2] = tested on: Pseudomonas aeruginosa; assay: Antibacterial activity against Pseudomonas aeruginosa 17-1 assessed as inhibition of bacterial growth measured after 18 to 20 hrs by broth microdilution method; format: functional; settings: time 18-20 hrs
[3] = tested on: Jurkat; assay: Cytotoxicity against human Jurkat cells assessed as inhibition of cell growth incubated for 24 hrs by CCK8 method; format: functional, cell-based
[4] = tested on: HepG2; assay: Cytotoxicity against human HepG2 cells assessed as inhibition of cell growth at 100 uM incubated for 24 hrs by CCK8 method relative to control; format: functional
[5] = tested on: Jurkat; assay: Cytotoxicity against human Jurkat cells assessed as inhibition of cell growth at 100 uM incubated for 24 hrs by CCK8 method relative to control; format: functional
[6] = tested on: Pseudomonas aeruginosa; assay: Antibacterial activity against Pseudomonas aeruginosa 19-5 assessed as inhibition of bacterial growth measured after 18 to 20 hrs by broth microdilution method; format: functional; settings: time 18-20 hrs
[7] = Cytotoxicity against HEK293T cells assessed as inhibition of cell growth at 100 uM incubated for 24 hrs by CCK8 method relative to control; format: toxicity, cell-based, HEK-293T; settings: human
[8] = tested on: Klebsiella pneumoniae; assay: Antibacterial activity against Klebsiella pneumoniae 15-4 assessed as inhibition of bacterial growth measured after 18 to 20 hrs by broth microdilution method; format: functional; settings: time 18-20 hrs
[9] = tested on: Escherichia coli; assay: Antibacterial activity against Escherichia coli 14-4 assessed as inhibition of bacterial growth measured after 18 to 20 hrs by broth microdilution method; format: functional; settings: time 18-20 hrs
[10] = tested on: Escherichia coli; assay: Antibacterial activity against Escherichia coli 14-2 assessed as inhibition of bacterial growth measured after 18 to 20 hrs by broth microdilution method; format: functional; settings: time 18-20 hrs
[11] = tested on: Klebsiella pneumoniae; assay: Antibacterial activity against Klebsiella pneumoniae 15-1 assessed as inhibition of bacterial growth measured after 18 to 20 hrs by broth microdilution method; format: functional; settings: time 18-20 hrs
[12] = tested on: Escherichia coli; assay: Antibacterial activity against Escherichia coli ATCC 35218 assessed as inhibition of bacterial growth measured after 18 to 20 hrs by broth microdilution method; format: functional; settings: time 18-20 hrs
[13] = tested on: HepG2; assay: Cytotoxicity against human HepG2 cells assessed as inhibition of cell growth incubated for 24 hrs by CCK8 method; format: functional, cell-based; settings: HepG2, 24 h
[14] = tested on: Acinetobacter baumannii; assay: Antibacterial activity against Acinetobacter baumannii 17-2 assessed as inhibition of bacterial growth measured after 18 to 20 hrs by broth microdilution method; format: functional; settings: time 18-20 hrs
[15] = tested on: Klebsiella pneumoniae; assay: Antibacterial activity against Klebsiella pneumoniae 15-5 assessed as inhibition of bacterial growth measured after 18 to 20 hrs by broth microdilution method; format: functional; settings: time 18-20 hrs
[16] = Cytotoxicity against HEK293T cells assessed as inhibition of cell growth incubated for 24 hrs by CCK8 method; format: toxicity, cell-based, HEK-293T; settings: human
[17] = Clearance in Sprague-Dawley rat at 10 mg/kg, iv measured upto 24 hrs LC-MS/MS analysis; format: ADME, organism-based; settings: in vivo
[18] = Volume of distribution at steady state in Sprague-Dawley rat at 10 mg/kg, iv measured upto 24 hrs LC-MS/MS analysis; format: ADME, organism-based; settings: in vivo, read-out: Vdss
[19] = MRT in Sprague-Dawley rat at 10 mg/kg, iv measured upto 24 hrs LC-MS/MS analysis; format: ADME, organism-based; settings: in vivo
[20] = AUC (0 to t) in Sprague-Dawley rat at 10 mg/kg, iv measured upto 24 hrs LC-MS/MS analysis; format: ADME, organism-based; settings: Sprague-Dawley, in vivo
[21] = Half life in Sprague-Dawley rat at 10 mg/kg, iv measured upto 24 hrs LC-MS/MS analysis; format: ADME, organism-based; settings: in vivo
[22] = tested on: Pseudomonas aeruginosa; assay: Antibacterial activity against Pseudomonas aeruginosa T-2022 assessed as inhibition of bacterial growth measured after 18 to 20 hrs by broth microdilution method; format: functional; settings: time 18-20 hrs
[23] = tested on: Pseudomonas aeruginosa; assay: Antibacterial efficacy against multi drug resistant Pseudomonas aeruginosa T-2022-D2-048 infected in cyclophosphamide-induced neutropenic thigh infection ICR mouse model assessed as decrease in bacterial burden at 40 mg/kg, iv dose measured after 24 hrs; format: functional, organism-based
[24] = AUC (0 to t) in Sprague-Dawley rat at 10 mg/kg, po measured upto 24 hrs LC-MS/MS analysis; format: ADME, organism-based; settings: Sprague-Dawley, in vivo
[25] = Tmax in Sprague-Dawley rat at 10 mg/kg, po measured upto 24 hrs LC-MS/MS analysis; format: ADME, organism-based; settings: in vivo
[26] = Half life in Sprague-Dawley rat at 10 mg/kg, po measured upto 24 hrs LC-MS/MS analysis; format: ADME, organism-based; settings: in vivo
[27] = tested on: Pseudomonas aeruginosa; assay: Antibacterial activity against multi drug resistant Pseudomonas aeruginosa T-2022-D2-048 infected in cyclophosphamide-induced neutropenic thigh infection ICR mouse model assessed as reduction in log CFU at 12 mg/kg, iv measured after 24 hrs; format: functional
[28] = Oral bioavailability in Sprague-Dawley rat at 10 mg/kg measured upto 24 hrs LC-MS/MS analysis; format: ADME, organism-based; settings: Sprague-Dawley, in vivo
[29] = MRT in Sprague-Dawley rat at 10 mg/kg, po measured upto 24 hrs LC-MS/MS analysis; format: ADME, organism-based; settings: in vivo
[30] = Cmax in Sprague-Dawley rat at 10 mg/kg, po measured upto 24 hrs LC-MS/MS analysis; format: ADME, organism-based; settings: in vivo

Row | SMILES | MIC [1] | MIC [2] | IC50 [3] | inhibition at 100 µM [4] | inhibition at 100 µM [5] | MIC [6] | inhibition at 24 h, 100 µM [7] | MIC [8] | MIC [9] | MIC [10] | MIC [11] | MIC [12] | IC50 [13] | MIC [14] | MIC [15] | IC50 at 24 h [16] | MIC [22] | further results
1 | Cc1nc(-c2ccc(CSSC3CCCC3)cc2)ncc1C(=O)N[C@@H](CCN)C(=O)N(C)[C@@H]1C(=O)N[C@@H](C)C(=O)N[C@H](C(=O)NCC#N)Cc2ccc(OCCN)c(c2)-c2cc1ccc2OCCN.O=C(O)C(F)(F)F.O=C(O)C(F)(F)F.O=C(O)C(F)(F)F.O=C(O)C(F)(F)F | 0.25 µg/mL | 4 µg/mL | > 100 µM | 3.22% | 35.4% | 4 µg/mL | 42.6% | 0.06 µg/mL | ≤ 0.03 µg/mL | 0.125 µg/mL | 0.125 µg/mL | ≤ 0.03 µg/mL | > 100 µM | 1 µg/mL | 0.06 µg/mL | > 100 µM | – | –
2 | CCCCSSCc1ccc(-c2ncc(C(=O)N[C@@H](CCN)C(=O)N(C)[C@@H]3C(=O)N[C@@H](C)C(=O)N[C@H](C(=O)NCC#N)Cc4ccc(OCCN)c(c4)-c4cc3ccc4OCCN)c(C)n2)cc1 | – | – | – | – | – | – | – | – | – | – | – | – | – | – | – | – | – | clearance [17]: 3.6 mL/min/kg; Vd [18]: 0.273 L/kg; MRT [19]: 1.27 h; AUC(0-t) at 24 h [20]: 46300 ng·h/mL; half-life [21]: 1.04 h
3 | Cc1nc(-c2ccc(SSC(C)(C)C)cc2)ncc1C(=O)N[C@@H](CCN)C(=O)N(C)[C@@H]1C(=O)N[C@@H](C)C(=O)N[C@H](C(=O)O)Cc2ccc(OCCN)c(c2)-c2cc1ccc2OCCN.O=C(O)C(F)(F)F.O=C(O)C(F)(F)F.O=C(O)C(F)(F)F.O=C(O)C(F)(F)F | 1 µg/mL | 32 µg/mL | > 100 µM | -4.95% | 44.8% | 16 µg/mL | 26.1% | ≤ 0.03 µg/mL | 0.06 µg/mL | ≤ 0.03 µg/mL | ≤ 0.03 µg/mL | ≤ 0.03 µg/mL | > 100 µM | 0.5 µg/mL | ≤ 0.03 µg/mL | > 100 µM | – | –
4 | C[C@@H](O)[C@H]1C(=O)N2C(C(=O)O)=C(S[C@@H]3CN[C@H](C(=O)N(C)C)C3)[C@H](C)[C@H]12 [MEROPENEM] | > 64 µg/mL | 8 µg/mL (≈ 20.9 µM) | – | – | – | 32 µg/mL (≈ 83.4 µM) | – | > 64 µg/mL | 2 µg/mL (≈ 5.22 µM) | 2 µg/mL (≈ 5.22 µM) | > 64 µg/mL | 0.06 µg/mL (≈ 0.156 µM) | – | > 64 µg/mL | > 64 µg/mL | – | > 64 µg/mL | Activity [23]: Active
5 | C[C@H]1COc2c(N3CCN(C)CC3)c(F)cc3c(=O)c(C(=O)O)cn1c23 [LEVOFLOXACIN ANHYDROUS] | – | – | – | – | – | – | – | – | – | – | – | – | – | – | – | – | > 64 µg/mL | –
6 | Cc1nc(-c2ccc(CSSC(C)(C)C)cc2)ncc1C(=O)N[C@@H](CCN)C(=O)N(C)[C@@H]1C(=O)N[C@@H](C)C(=O)N[C@H](C(=O)NCC#N)Cc2ccc(OCCN)c(c2)-c2cc1ccc2OCCN.O=C(O)C(F)(F)F.O=C(O)C(F)(F)F.O=C(O)C(F)(F)F.O=C(O)C(F)(F)F | 0.125 µg/mL | 4 µg/mL | > 100 µM | 28.4% | 34.6% | 4 µg/mL | 43% | ≤ 0.03 µg/mL | ≤ 0.03 µg/mL | ≤ 0.03 µg/mL | ≤ 0.03 µg/mL | ≤ 0.03 µg/mL | > 100 µM | 0.125 µg/mL | ≤ 0.03 µg/mL | > 100 µM | – | –
7 | Cc1nc(-c2ccc(CSSC(C)(C)C)cc2)ncc1C(=O)N[C@@H](CCN)C(=O)N(C)[C@@H]1C(=O)N[C@@H](C)C(=O)N[C@H](C(=O)NCC#N)Cc2ccc(OCCN)c(c2)-c2cc1ccc2OCCN | – | – | – | – | – | – | – | – | – | – | – | – | – | – | – | – | 4 µg/mL (≈ 4.13 µM) | AUC(0-t) at 24 h [24]: 70.1 ng·h/mL; Tmax [25]: 3.33 h; half-life [26]: 2.83 h; clearance [17]: 1.16 mL/min/kg; Vd [18]: 0.435 L/kg; log CFU reduction [27]: 3.5 log CFU/g; bioavailability [28]: 0.05%; MRT [19]: 6.27 h; MRT [29]: 5.63 h; Cmax [30]: 11.5 ng/mL; AUC(0-t) at 24 h [20]: 142000 ng·h/mL; half-life [21]: 4.18 h
